The record followed here is PubChem BioAssay (NCI).

Some test systems named below: UO-31 renal; HCT-116 colon; KM12 colon; HCC-2998 colon; SNB-19 CNS; OVCAR-8 ovarian; HOP-92 NSCLC; DU-145 prostate; UACC-257 melanoma; CAKI-1 renal.
Test in all cases: DTP human tumour cell line panel, 48 h

Broadly, the GI50 is the concentration that inhibits growth by half. One may read the TGI as the concentration at which net growth stops. A high value points to less potent growth arrest.

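48-hour exposure; five concentrations; linearly interpolated endpoints. GI50: concentration for 50% inhibition of growth. TGI denotes the concentration required for complete inhibition of growth.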 Bounds are passed on as bounds.

With `COc1cc[nH]c1/C=C1\C(=O)Nc2ccc(F)c(I)c21`, the GI50 in the assay with UO-31 renal is more than 25 µM; in the assay on HCT-116 colon it was more than 25 µM; in the assay with KM12 colon, 1.25 µM; with HCC-2998 colon, more than 25 µM; with SNB-19 CNS, more than 25 µM; with OVCAR-8 ovarian, more than 25 µM. Further, the GI50 in the assay on HOP-92 NSCLC was more than 25 µM; with DU-145 prostate it was more than 25 µM; in the assay on UACC-257 melanoma, more than 25 µM; in the assay on CAKI-1 renal, 0.557 µM. Further, the TGI in the assay on UO-31 renal, in the assay with HCT-116 colon, in the assay on KM12 colon, with HCC-2998 colon, in the assay on SNB-19 CNS and in the assay with OVCAR-8 ovarian was more than 25 µM each time. Further, the TGI in the assay on HOP-92 NSCLC, with DU-145 prostate, in the assay on UACC-257 melanoma and in the assay with CAKI-1 renal was more than 25 µM each time.

Regarding `CCCCCCCCCCCCCC(=O)CBr`, the TGI was 24 µM in the assay on UO-31 renal; 17 µM with HCT-116 colon; 16.9 µM in the assay on KM12 colon; 32.1 µM with HCC-2998 colon; 33.7 µM in the assay on SNB-19 CNS; 35.6 µM with OVCAR-8 ovarian. Also, the TGI in the assay with HOP-92 NSCLC amounted to 6.43 µM; with DU-145 prostate it was 33.7 µM; with UACC-257 melanoma it was 17.7 µM; with CAKI-1 renal, 3.13 µM.

Regarding `O=C1C(Cl)=C(Nc2cccc(O)c2)C(=O)N1c1cc(Cl)c(Cl)cc1Cl`, the GI50 in the assay with UO-31 renal is 13.5 µM; with HCT-116 colon, 15.8 µM; in the assay with KM12 colon it was 16.5 µM; with HCC-2998 colon, 19.1 µM; with SNB-19 CNS, 20.4 µM; in the assay on OVCAR-8 ovarian, 24 µM. Moreover, the GI50 in the assay on HOP-92 NSCLC was 12.5 µM; in the assay with DU-145 prostate it was 17.4 µM; in the assay with UACC-257 melanoma, 30.3 µM; with CAKI-1 renal, 19.2 µM. For the same molecule, the TGI in the assay with UO-31 renal worked out at 26.4 µM; in the assay with HCT-116 colon, 30.2 µM; with KM12 colon, 34.3 µM; in the assay on HCC-2998 colon, 34.8 µM; in the assay on SNB-19 CNS it was 45.5 µM; with OVCAR-8 ovarian it was 75.5 µM. For the same molecule, the TGI in the assay on HOP-92 NSCLC is 26.2 µM; with DU-145 prostate, 39.3 µM; in the assay on UACC-257 melanoma, 77.2 µM; with CAKI-1 renal it was 48.1 µM.

As for `COc1ccc(-c2cncn2-c2ccc(OC)cc2)cc1`, the GI50 is 17.2 µM in the assay on UO-31 renal; 20.5 µM with HCT-116 colon; 10.2 µM in the assay on KM12 colon; 16.7 µM in the assay with HCC-2998 colon; 21.1 µM in the assay on OVCAR-8 ovarian; 23 µM in the assay on HOP-92 NSCLC. Also, the results for the GI50 in the assay on DU-145 prostate, in the assay on UACC-257 melanoma and in the assay with CAKI-1 renal were 14.9 µM, 21.4 µM and 20.6 µM, respectively. The TGI turned out to be 53.6 µM in the assay with UO-31 renal; 44 µM in the assay on HCT-116 colon; 29 µM in the assay with KM12 colon; 32.2 µM in the assay on HCC-2998 colon; 52.8 µM in the assay on OVCAR-8 ovarian; 84.8 µM with HOP-92 NSCLC. Further, the TGI was determined as 32.5 µM with DU-145 prostate, 62.2 µM in the assay with UACC-257 melanoma and 44 µM in the assay with CAKI-1 renal.

As to `Cc1ccc(C(O)c2cnc(C)n2Cc2ccccc2)cc1` (stereo not given), the TGI with UO-31 renal, in the assay with HCT-116 colon, with KM12 colon, in the assay on HCC-2998 colon, in the assay on SNB-19 CNS and in the assay with OVCAR-8 ovarian was more than 100 µM throughout. For the same molecule, the TGI with HOP-92 NSCLC, in the assay on DU-145 prostate, with UACC-257 melanoma and in the assay on CAKI-1 renal was more than 100 µM each time.

For `C[C@@H]1CN(CC(=O)N2CC(C)(C)c3nc(CO)c(Cc4ccc(F)cc4)cc32)[C@@H](CN2CCOC[C@H]2C)CN1`, the GI50 in the assay on UO-31 renal is more than 100 µM; with HCT-116 colon, 36.9 µM; with KM12 colon it was 46.2 µM; in the assay on HCC-2998 colon, 17.1 µM; in the assay on SNB-19 CNS, more than 100 µM; in the assay on OVCAR-8 ovarian, 32.1 µM. In addition, the GI50 in the assay with HOP-92 NSCLC was 3.79 µM; in the assay on DU-145 prostate it was 82.1 µM; in the assay on UACC-257 melanoma, 15.3 µM; with CAKI-1 renal, more than 100 µM. Moreover, the TGI in the assay on UO-31 renal was more than 100 µM; with HCT-116 colon, more than 100 µM; with KM12 colon, more than 100 µM; with HCC-2998 colon, 32.4 µM; with SNB-19 CNS it was more than 100 µM; with OVCAR-8 ovarian it was more than 100 µM. For the same molecule, the TGI in the assay with HOP-92 NSCLC is 19.7 µM; in the assay with DU-145 prostate, more than 100 µM; in the assay on UACC-257 melanoma it was 31.1 µM; in the assay with CAKI-1 renal, more than 100 µM.

Take `CCN(Cc1ccccc1OC)c1ccc(CO)c(Cl)c1`: the GI50 with UO-31 renal was 11.5 µM; in the assay with HCT-116 colon, 0.215 µM; in the assay with KM12 colon it was 11 µM; with HCC-2998 colon, 10.7 µM; in the assay on SNB-19 CNS, 13.7 µM; in the assay on OVCAR-8 ovarian it was 12.4 µM. Also, the GI50 in the assay with HOP-92 NSCLC was 1.66 µM; with DU-145 prostate it was 15.8 µM; with UACC-257 melanoma, 0.162 µM; in the assay with CAKI-1 renal it was 5.62 µM. Besides, the TGI in the assay on UO-31 renal amounted to 24.7 µM; in the assay on HCT-116 colon, 8.77 µM; in the assay on KM12 colon it was 25.8 µM; with HCC-2998 colon it was 24.5 µM; in the assay on SNB-19 CNS, 31.8 µM; with OVCAR-8 ovarian, 31.8 µM. The TGI with HOP-92 NSCLC came to 8.51 µM; in the assay on DU-145 prostate, 33.4 µM; in the assay with UACC-257 melanoma it was 0.498 µM; in the assay with CAKI-1 renal, 23.9 µM.

Turning to `CCCCN(Cc1ccc(F)cc1)c1ccc(CO)c(Cl)c1`, the GI50 in the assay with UO-31 renal is 10.6 µM; with HCT-116 colon, 0.906 µM; with KM12 colon, 17.5 µM; in the assay on HCC-2998 colon it was 12.4 µM; with SNB-19 CNS, 14.3 µM; in the assay on OVCAR-8 ovarian, 14.2 µM. The GI50 is 3.32 µM in the assay on HOP-92 NSCLC, 17 µM in the assay with DU-145 prostate, 0.862 µM in the assay on UACC-257 melanoma and 11.7 µM with CAKI-1 renal. Moreover, the TGI in the assay on UO-31 renal amounted to 23.6 µM; with HCT-116 colon, 13.2 µM; with KM12 colon, 33 µM; in the assay on HCC-2998 colon, 26.7 µM; with SNB-19 CNS, 27.7 µM; with OVCAR-8 ovarian, 28.5 µM. Also, the TGI came to 19.5 µM with HOP-92 NSCLC, 31.3 µM with DU-145 prostate, 3.75 µM in the assay with UACC-257 melanoma and 25.5 µM with CAKI-1 renal.

As to `O=C1/C(=C/c2ccc(O)cc2)COc2ccc(-c3ccccc3)cc21`, the GI50 was 4.64 µM in the assay on UO-31 renal; 3.38 µM in the assay on HCT-116 colon; 2.28 µM in the assay with KM12 colon; 4.08 µM with HCC-2998 colon; 15.7 µM with SNB-19 CNS; 9.27 µM in the assay on OVCAR-8 ovarian. Moreover, the figures for the GI50 in the assay on HOP-92 NSCLC, with DU-145 prostate and in the assay on CAKI-1 renal were 7.63 µM, 4.09 µM and 6.9 µM, respectively. The TGI in the assay with UO-31 renal worked out at 23.4 µM; with HCT-116 colon, 14.4 µM; in the assay with KM12 colon, 7.54 µM; in the assay on HCC-2998 colon it was 11.2 µM; with SNB-19 CNS, 37.3 µM; with OVCAR-8 ovarian, 23.1 µM. For the same molecule, the TGI was 31 µM in the assay on HOP-92 NSCLC, 14.6 µM in the assay on DU-145 prostate and 20.2 µM in the assay with CAKI-1 renal.

With `Clc1nc(Cl)c2c(ncn2C/C=C\Cn2cnc3c(Cl)nc(Cl)nc32)n1`, the GI50 with UO-31 renal was 2.08 µM; in the assay on KM12 colon, 1.82 µM; in the assay on HCC-2998 colon, 1.5 µM; with SNB-19 CNS it was 1.66 µM; in the assay on OVCAR-8 ovarian, 1.2 µM; in the assay with HOP-92 NSCLC, 1.89 µM. Besides, the GI50 in the assay with DU-145 prostate was 1.53 µM; in the assay on UACC-257 melanoma it was 1.48 µM; with CAKI-1 renal it was 1.63 µM. Also, the TGI with UO-31 renal stood at 4.35 µM; in the assay with KM12 colon, 3.41 µM; with HCC-2998 colon, 3.05 µM; in the assay with SNB-19 CNS it was 3.16 µM; in the assay with OVCAR-8 ovarian, 4.37 µM; in the assay on HOP-92 NSCLC, 3.58 µM. The TGI in the assay on DU-145 prostate was 2.86 µM; in the assay on UACC-257 melanoma, 5.9 µM; in the assay on CAKI-1 renal, 3.83 µM.

Turning to `c1cnc2[nH]cc(-c3csc(-c4cn(CCCCN5CCOCC5)c5ccccc45)n3)c2c1`, the GI50 in the assay on UO-31 renal is 1.15 µM; in the assay on HCT-116 colon it was 1.65 µM; in the assay with KM12 colon it was 1.72 µM; with HCC-2998 colon it was 1.74 µM; with SNB-19 CNS, 1.76 µM; with HOP-92 NSCLC it was 1.43 µM. Besides, the values for the GI50 with DU-145 prostate, with UACC-257 melanoma and in the assay on CAKI-1 renal were 2.12 µM, 1.84 µM and 1.74 µM, respectively. Further, the TGI with UO-31 renal turned out to be 2.53 µM; with HCT-116 colon, 3.05 µM; with KM12 colon it was 3.34 µM; in the assay on HCC-2998 colon it was 3.26 µM; in the assay on SNB-19 CNS it was 3.49 µM; in the assay on HOP-92 NSCLC it was 3.13 µM. The TGI was found to be 4.28 µM in the assay on DU-145 prostate, 3.53 µM with UACC-257 melanoma and 3.52 µM in the assay on CAKI-1 renal.

Turning to `Clc1nc(Cl)c2ncn(Cc3ccc(COc4cccc(OCc5ccc(Cn6cnc7c(Cl)nc(Cl)nc76)cc5)c4)cc3)c2n1`, the GI50 in the assay with UO-31 renal is 51.5 µM; in the assay on KM12 colon, 58.2 µM; in the assay on HCC-2998 colon, 17.9 µM; in the assay on SNB-19 CNS it was more than 100 µM; with OVCAR-8 ovarian it was 33.6 µM; with HOP-92 NSCLC, 36.2 µM. Further, the GI50 with DU-145 prostate was 18.5 µM; with UACC-257 melanoma it was 24.9 µM; in the assay with CAKI-1 renal, more than 100 µM. The TGI was more than 100 µM in the assay on UO-31 renal; more than 100 µM in the assay on KM12 colon; 35.8 µM with HCC-2998 colon; more than 100 µM with SNB-19 CNS; more than 100 µM with OVCAR-8 ovarian; more than 100 µM with HOP-92 NSCLC. Besides, the TGI is 48.1 µM in the assay with DU-145 prostate, more than 100 µM with UACC-257 melanoma and more than 100 µM in the assay on CAKI-1 renal.
